# Species on record: Rattus norvegicus
# Assay: DrugMatrix - Regimen: Daily Repeat
# Type: toxicity, organism-based, Sprague-Dawley
# Parameters: regimen Daily Repeat, gender Male, age 6-8 weeks
# Details: in vivo, po, route oral GAVAGE, vehicle 100 % WATER; for ABSOLUTE BASOPHIL / ABSOLUTE EOSINOPHIL / ABSOLUTE LYMPHOCYTE / ABSOLUTE MONOCYTE / ABSOLUTE SEGMENTED NEUTROPHIL / BASOPHIL / EOSINOPHIL / ERYTHROCYTE COUNT / HEMATOCRIT / HEMOGLOBIN / LEUKOCYTE COUNT / LYMPHOCYTE / MEAN CORPUSCULAR HEMOGLOBIN / MEAN CORPUSCULAR HEMOGLOBIN CONCENTRATION / MEAN CORPUSCULAR VOLUME / MONOCYTE / NEUTROPHIL / NUCLEATED RED BLOOD CELLS / PLATELET COUNT: tissue Blood; for ALANINE AMINOTRANSFERASE / ALBUMIN / ALKALINE PHOSPHATASE / ASPARTATE AMINOTRANSFERASE / BLOOD UREA NITROGEN / CARBON DIOXIDE / CHLORIDE / CHOLESTEROL / CREATINE PHOSPHOKINASE / CREATININE / GLUCOSE / LACTATE DEHYDROGENASE / LIPASE / PHOSPHORUS / POTASSIUM / SODIUM / TOTAL BILIRUBIN / TOTAL PROTEIN / URIC ACID: tissue Plasma
# [1] = 30 mg/kg, 72 h, dose level Low, time 3 day
# [2] = 30 mg/kg, 120 h, dose level Low, time 5 day
# [3] = 1000 mg/kg, 72 h, dose level High, time 3 day
# [4] = 1000 mg/kg, 120 h, dose level High, time 5 day
smiles,measurement,setting,value
CCCCc1nc(Cl)c(CO)n1Cc1ccc(-c2ccccc2-c2nn[nH]n2)cc1 [LOSARTAN],ABSOLUTE BASOPHIL,[1],0 CELLS/uL
same,ABSOLUTE EOSINOPHIL,[1],0 CELLS/uL
same,ABSOLUTE LYMPHOCYTE,[1],14016.67 CELLS/uL
same,ABSOLUTE MONOCYTE,[1],389.33 CELLS/uL
same,ABSOLUTE SEGMENTED NEUTROPHIL,[1],894 CELLS/uL
same,BASOPHIL,[1],0%
same,EOSINOPHIL,[1],0%
same,ERYTHROCYTE COUNT,[1],5.45 x10E6/uL
same,HEMATOCRIT,[1],35.03%
same,HEMOGLOBIN,[1],13.17 G/DL
same,LEUKOCYTE COUNT,[1],15.3 x10E3/uL
same,LYMPHOCYTE,[1],91.33%
same,MEAN CORPUSCULAR HEMOGLOBIN,[1],24.17 pg
same,MEAN CORPUSCULAR HEMOGLOBIN CONCENTRATION,[1],37.6 G/DL
same,MEAN CORPUSCULAR VOLUME,[1],64.2 fL
same,MONOCYTE,[1],2.67%
same,NEUTROPHIL,[1],6%
same,NUCLEATED RED BLOOD CELLS,[1],0 /100WBC
same,PLATELET COUNT,[1],1281.67 x10E3/uL
same,ALANINE AMINOTRANSFERASE,[1],42 u/L
same,ALBUMIN,[1],4.4 G/DL
same,ALKALINE PHOSPHATASE,[1],318.67 u/L
same,ASPARTATE AMINOTRANSFERASE,[1],77.33 u/L
same,BLOOD UREA NITROGEN,[1],20 mg/dL
same,CARBON DIOXIDE,[1],25 mmol/L
same,CHLORIDE,[1],103 MEQ/L
same,CHOLESTEROL,[1],78 mg/dL
same,CREATINE PHOSPHOKINASE,[1],190.67 u/L
same,CREATININE,[1],0.23 mg/dL
same,GLUCOSE,[1],178 mg/dL
same,LACTATE DEHYDROGENASE,[1],89.33 u/L
same,LIPASE,[1],9.33 u/L
same,PHOSPHORUS,[1],13.6 mg/dL
same,POTASSIUM,[1],7.08 MEQ/L
same,SODIUM,[1],145.07 MEQ/L
same,TOTAL BILIRUBIN,[1],0.17 mg/dL
same,TOTAL PROTEIN,[1],6.1 G/DL
same,URIC ACID,[1],2.83 mg/dL
same,ABSOLUTE BASOPHIL,[2],0 CELLS/uL
same,ABSOLUTE EOSINOPHIL,[2],152.67 CELLS/uL
same,ABSOLUTE LYMPHOCYTE,[2],13450.67 CELLS/uL
same,ABSOLUTE MONOCYTE,[2],299.67 CELLS/uL
same,ABSOLUTE SEGMENTED NEUTROPHIL,[2],963.67 CELLS/uL
same,BASOPHIL,[2],0%
same,EOSINOPHIL,[2],1.33%
same,ERYTHROCYTE COUNT,[2],5.55 x10E6/uL
same,HEMATOCRIT,[2],35.3%
same,HEMOGLOBIN,[2],13.53 G/DL
same,LEUKOCYTE COUNT,[2],14.87 x10E3/uL
same,LYMPHOCYTE,[2],90%
same,MEAN CORPUSCULAR HEMOGLOBIN,[2],24.37 pg
same,MEAN CORPUSCULAR HEMOGLOBIN CONCENTRATION,[2],38.33 G/DL
same,MEAN CORPUSCULAR VOLUME,[2],63.6 fL
same,MONOCYTE,[2],2%
same,NEUTROPHIL,[2],6.67%
same,NUCLEATED RED BLOOD CELLS,[2],0.33 /100WBC
same,PLATELET COUNT,[2],1227.33 x10E3/uL
same,ALANINE AMINOTRANSFERASE,[2],55 u/L
same,ALBUMIN,[2],4.43 G/DL
same,ALKALINE PHOSPHATASE,[2],365.33 u/L
same,ASPARTATE AMINOTRANSFERASE,[2],83.67 u/L
same,BLOOD UREA NITROGEN,[2],26 mg/dL
same,CARBON DIOXIDE,[2],23.67 mmol/L
same,CHLORIDE,[2],109 MEQ/L
same,CHOLESTEROL,[2],82 mg/dL
same,CREATINE PHOSPHOKINASE,[2],302.33 u/L
same,CREATININE,[2],0.19 mg/dL
same,GLUCOSE,[2],156.67 mg/dL
same,LACTATE DEHYDROGENASE,[2],189 u/L
same,LIPASE,[2],9.5 u/L
same,PHOSPHORUS,[2],12.1 mg/dL
same,POTASSIUM,[2],6.02 MEQ/L
same,SODIUM,[2],144.45 MEQ/L
same,TOTAL BILIRUBIN,[2],0.0667 mg/dL
same,TOTAL PROTEIN,[2],6.2 G/DL
same,URIC ACID,[2],1.5 mg/dL
same,ABSOLUTE BASOPHIL,[3],0 CELLS/uL
same,ABSOLUTE EOSINOPHIL,[3],0 CELLS/uL
same,ABSOLUTE LYMPHOCYTE,[3],16308 CELLS/uL
same,ABSOLUTE MONOCYTE,[3],476 CELLS/uL
same,ABSOLUTE SEGMENTED NEUTROPHIL,[3],949.33 CELLS/uL
same,BASOPHIL,[3],0%
same,EOSINOPHIL,[3],0%
same,ERYTHROCYTE COUNT,[3],5.24 x10E6/uL
same,HEMATOCRIT,[3],33.6%
same,HEMOGLOBIN,[3],12.73 G/DL
same,LEUKOCYTE COUNT,[3],17.73 x10E3/uL
same,LYMPHOCYTE,[3],92.33%
same,MEAN CORPUSCULAR HEMOGLOBIN,[3],24.3 pg
same,MEAN CORPUSCULAR HEMOGLOBIN CONCENTRATION,[3],37.9 G/DL
same,MEAN CORPUSCULAR VOLUME,[3],64.13 fL
same,MONOCYTE,[3],2.67%
same,NEUTROPHIL,[3],5%
same,NUCLEATED RED BLOOD CELLS,[3],0 /100WBC
same,PLATELET COUNT,[3],1384.67 x10E3/uL
same,ALANINE AMINOTRANSFERASE,[3],41.67 u/L
same,ALBUMIN,[3],4.4 G/DL
same,ALKALINE PHOSPHATASE,[3],365.67 u/L
same,ASPARTATE AMINOTRANSFERASE,[3],77.33 u/L
same,BLOOD UREA NITROGEN,[3],39.33 mg/dL
same,CARBON DIOXIDE,[3],21.67 mmol/L
same,CHLORIDE,[3],106.33 MEQ/L
same,CHOLESTEROL,[3],96 mg/dL
same,CREATINE PHOSPHOKINASE,[3],290.67 u/L
same,CREATININE,[3],0.26 mg/dL
same,GLUCOSE,[3],165.33 mg/dL
same,LACTATE DEHYDROGENASE,[3],296 u/L
same,LIPASE,[3],10 u/L
same,PHOSPHORUS,[3],12.6 mg/dL
same,POTASSIUM,[3],6.89 MEQ/L
same,SODIUM,[3],144.3 MEQ/L
same,TOTAL BILIRUBIN,[3],0.2 mg/dL
same,TOTAL PROTEIN,[3],5.93 G/DL
same,URIC ACID,[3],1.73 mg/dL
same,ABSOLUTE BASOPHIL,[4],0 CELLS/uL
same,ABSOLUTE EOSINOPHIL,[4],186 CELLS/uL
same,ABSOLUTE LYMPHOCYTE,[4],17950.67 CELLS/uL
same,ABSOLUTE MONOCYTE,[4],194 CELLS/uL
same,ABSOLUTE SEGMENTED NEUTROPHIL,[4],1069.33 CELLS/uL
same,BASOPHIL,[4],0%
same,EOSINOPHIL,[4],1%
same,ERYTHROCYTE COUNT,[4],5.34 x10E6/uL
same,HEMATOCRIT,[4],32.67%
same,HEMOGLOBIN,[4],12.67 G/DL
same,LEUKOCYTE COUNT,[4],19.4 x10E3/uL
same,LYMPHOCYTE,[4],92.67%
same,MEAN CORPUSCULAR HEMOGLOBIN,[4],23.73 pg
same,MEAN CORPUSCULAR HEMOGLOBIN CONCENTRATION,[4],38.77 G/DL
same,MEAN CORPUSCULAR VOLUME,[4],61.27 fL
same,MONOCYTE,[4],1%
same,NEUTROPHIL,[4],5.33%
same,NUCLEATED RED BLOOD CELLS,[4],0 /100WBC
same,PLATELET COUNT,[4],1450.33 x10E3/uL
same,ALANINE AMINOTRANSFERASE,[4],48.67 u/L
same,ALBUMIN,[4],4.4 G/DL
same,ALKALINE PHOSPHATASE,[4],418.33 u/L
same,ASPARTATE AMINOTRANSFERASE,[4],72 u/L
same,BLOOD UREA NITROGEN,[4],59.67 mg/dL
same,CARBON DIOXIDE,[4],24.33 mmol/L
same,CHLORIDE,[4],110.67 MEQ/L
same,CHOLESTEROL,[4],80.67 mg/dL
same,CREATINE PHOSPHOKINASE,[4],480.33 u/L
same,CREATININE,[4],0.37 mg/dL
same,GLUCOSE,[4],175.33 mg/dL
same,LACTATE DEHYDROGENASE,[4],59.33 u/L
same,LIPASE,[4],9 u/L
same,PHOSPHORUS,[4],11.37 mg/dL
same,POTASSIUM,[4],7.02 MEQ/L
same,SODIUM,[4],146.03 MEQ/L
same,TOTAL BILIRUBIN,[4],0.13 mg/dL
same,TOTAL PROTEIN,[4],5.9 G/DL
same,URIC ACID,[4],1.83 mg/dL
